Measured values as given in patent US20100209426A1, “INHIBITORS OF PROGASTRIN-INDUCED REPRESSION OF ICAT FOR TREATING AND/OR PREVENTING COLORECTAL CANCER, ADENOMATOUS POLYPOSIS OR METASTASIS DISPLAYING PROGASTRIN-SECRETING CELLS AND CELLS IN WHICH THE BETA-CATENIN/TCF-MEDIATED TRANSCRIPTIONAL PATHWAY IS CONSTITUTIVELY ACTIVE” (INSERM (INSTITUT NATIONAL DE LA SANTE ET DE LA REC HERCHE …, priority 2006, published 2010).

Key:
APCΔ14 mice = assay: siRNA treatment of APCΔ14 mice (spontaneous intestinal tumorigenesis); assay type: in vivo, mouse
Description: (§1) APCΔ14 mice were housed in conventional conditions, and randomized in two groups. The first group (n=9), was treated once daily by intraperitoneal administration of 250 μg/kg siRNA against the murine GAST mRNA. Control mice (n=9) were treated with a similar dose of siRNA against Luciferase. (siRNA sequence on FIG. S7 online). […] Adenoma scoring in the intestine and colon was described in (Colnot et al., 2004). Samples of healthy intestinal mucosa, as well as intestinal and colon adenomas, were fixed in 4% PFA and paraffin-embedded, or frozen in liquid nitrogen, for Western blotting, IHC or RNA extraction. Plasma was prepared and assayed for IL-6 and TNFα using the FACSarray system (Becton Dickinson).

[1] = Plasma IL-6 and TNFα in siRNA-treated APCΔ14 mice; assay type: in vivo, mouse; conditions: two-week treatment, GAST siRNA versus Luc siRNA
Description: as §1

[2] = test system: Colo-26 murine CRC cells and Young adult mouse colon (YAMC) cells; assay: GAST mRNA after siRNA transfection of murine cells (RT-QPCR); assay type: cell-based; conditions: mouse cells (FIG. S1)

For “siRNA directed against the murine GAST gene: siRNA against the murine GAST mRNA; siRNAs mPG sense 5′-GAAGAGGCCUACGGAUGGTT-3′ (SEQ ID No 29), antisense SEQ ID No 30 (antisense CCAUCCGUAGGCCUCUUCTT; chemistry not given here)”, which “ICAT expression in adenomas” value (APCΔ14 mice; APCΔ14 mice treated with siRNA) is on record?
The value was “significantly increased”.

What about the “expression of Tcf-4 target genes in adenomas” value (APCΔ14 mice; APCΔ14 mice treated with siRNA) of the same substance?
The value was “strong repression”.

And the “number of cells staining for activated caspase 3 in adenomas” value (APCΔ14 mice; APCΔ14 mice treated with siRNA, immunohistochemistry)?
The value was “strongly elevated”.

What about the “Muc-2 and Alcian-blue positive cells in remaining small intestinal and colonic adenomas” value (APCΔ14 mice; APCΔ14 mice treated with siRNA, immunohistochemistry, compared to controls) of the same substance?
Its value is “greatly increased numbers”.

What about the “decrease in the total number of intestinal tumors” value (APCΔ14 mice; APCΔ14 mice, 250 μg/kg siRNA intraperitoneal once daily for two weeks, compared to Luciferase siRNA control animals) of the same substance?
Its value is 20%.

What about the “reduction in tumor size in the colon” value (APCΔ14 mice; APCΔ14 mice, daily siRNA for two weeks, colon, Fischer's exact test p=0.228) of the same substance?
The value was “not reaching significance”.

And the “GAST gene and progastrin expression in intestinal adenomas” value (APCΔ14 mice; APCΔ14 mice, daily siRNA for two weeks, compared to Luciferase-specific siRNA)?
Its value is “reduction”.

And the “tumor size in the intestine” value (APCΔ14 mice; APCΔ14 mice, daily siRNA for two weeks, compared to controls, Chi-square p<0.0001, n=9 per group)?
Its value is “significant reduction”.

And the “reduction in tumor size in the ileum” value (APCΔ14 mice; APCΔ14 mice, daily siRNA for two weeks, ileum)?
Its value is “particularly marked”.

What about the “levels of plasma IL-6 and TNFα (proinflammatory response)” value [1] of the same substance?
The value was “No significant differences”.

And the “down-regulation of GAST in mouse cells” value [2]?
The value was “effective”.
